Values of other authors as cited in US7358271B2, “Sulpiride pharmaceutical compositions” (Williamsburg Holdings LLC, priority 2003, dated 2008).
Where two headings read alike, the source gives them in different places.

Tests used:
[1] = compared with physiological pH
[2] = healthy volunteers, oral
[3] = oral formulations

For `CCN1CCCC1CNC(=O)c1cc(S(N)(=O)=O)ccc1OC` (stereo not shown) [sulpiride, N-(1-Ethyl-pyrrolidin-2-ylmethyl)-2-methoxy-5-sulfamoyl-benzamide], the pKa [1] is listed as “lower than physiological pH”, the bioavailability ([2]; after food) is listed as 27% and the bioavailability ([2]; without food) is listed as 20%. For the same molecule, the “absorption in the gastrointestinal tract” value [3] was ~30%.
